Columns and labels:
DHX33 protein = biological target: T1, DHX33 protein (Mus musculus, UniProt Q80VY9); assay: Inhibition of the helicase activity of DHX33 protein in vitro; format: biochemical; settings: recombinant DHX33 protein, compound 1-1000 nM, 37° C., 60 minutes; read-out: IC50 (inhibitory effects of the compounds on the helicase activity of DHX33 protein)
T1 construct: purified full-length DHX33 protein; made in house; host or cells: E. coli BL-21pLysS (DE3)
T1 sequence (Q80VY9 1-698): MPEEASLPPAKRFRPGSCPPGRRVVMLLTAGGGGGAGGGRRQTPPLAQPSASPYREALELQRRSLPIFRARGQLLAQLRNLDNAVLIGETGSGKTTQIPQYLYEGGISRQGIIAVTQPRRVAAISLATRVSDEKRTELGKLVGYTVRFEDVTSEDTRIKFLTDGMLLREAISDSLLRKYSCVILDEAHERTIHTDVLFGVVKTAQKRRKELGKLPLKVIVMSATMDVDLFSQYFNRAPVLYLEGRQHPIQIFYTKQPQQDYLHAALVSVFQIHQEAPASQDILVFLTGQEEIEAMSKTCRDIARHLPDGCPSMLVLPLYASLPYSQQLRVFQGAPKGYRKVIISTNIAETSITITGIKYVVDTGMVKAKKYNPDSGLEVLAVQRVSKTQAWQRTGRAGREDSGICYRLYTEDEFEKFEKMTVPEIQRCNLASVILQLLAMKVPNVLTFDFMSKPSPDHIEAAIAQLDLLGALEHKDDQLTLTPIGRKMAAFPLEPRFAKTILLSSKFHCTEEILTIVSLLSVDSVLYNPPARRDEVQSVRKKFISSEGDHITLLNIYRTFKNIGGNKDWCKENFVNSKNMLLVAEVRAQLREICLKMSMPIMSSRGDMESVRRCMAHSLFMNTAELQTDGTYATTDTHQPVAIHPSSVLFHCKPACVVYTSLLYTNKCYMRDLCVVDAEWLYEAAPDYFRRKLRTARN
Procedure: Biochemistry. 2019:58 (4):250-8. RNA helicase gene (mouse DHX33 gene) was cloned into a pET32M-3C vector (between BamH I/Not I restriction sites). Afterward, the plasmid was transformed into BL-21pLysS (DE3) E. coli. 0.5 mM isopropyl 1-thio-βp-D-galactopyranoside (IPTG) was added, and the expression of the recombinant protein was induced at 16° C. for 16 hours. Cells were allowed to precipitate and were resuspended in a cell lysis buffer [50 mM Tris-HCl (pH7.2), 150 mM NaCl, 1% Triton X-100, and 50 mM imidazole supplemented with a protease inhibitor]. Thereafter, cells were subjected to ultrasonic treatment and centrifuged at a rotation speed of 13000 rpm for 25 minutes. The supernatant was incubated with the nickel-nitrilotriacetic acid beads equilibrated in Tris buffer, followed by sufficient washing. Thereafter, the purified protein was eluted with a solution of 300 mM imidazole in Tris buffer, and was then subjected to dialysis against an imidazole-free Tris buffer at 4° C. overnight.
The components involved in the reaction for testing the helicase activity were added to a 96-well opaque white plate. The method was outlined as follows. The 96-well plate was coated with neutravidin at a final concentration of 10 μg/mL (100 μl/well) overnight at 4° C. Afterwards, the neutravidin-coated plate was blocked with 100 μL of 0.1% (w/v) BSA (dissolved in normal PBS) at 22° C. for 2 hours. After washing, a DNA duplex (2.5 ng) that was resulted from the annealing of two single-stranded DNA oligonucleotides (the sequence of one single strand was biotin-labeled 5′-[…]-3′; and the sequence of the other single strand was DIG-labeled 5′-[…]-3′) [the annealing reaction was carried out in PBS (pH 7.0) containing 1M NaCl] was added, and the resulting mixture was incubated at 22° C. for 4 hours. After the addition of 90 μL of the reaction mixture, the helicase reaction was initiated [0.25 pig of purified full-length DHX33 protein, dissolved in 25 mM 4-MOPS (pH 7.0), 5 mM ATP 2 mM DTT, 3 mM MnCl2 and 100 μg/mL BSA]. The reaction was conducted at 37° C. for 60 minutes. After being washed, each well was incubated with a blocking solution [10% (w/v) BSA in 0.1 M maleic acid and 0.15 M NaCl (pH 7.5)] for 30 minutes, and was then incubated with 20 μL of antibody solution (anti-DIG-AP, Roche, in blocking buffer) for 30 minutes. After being washed with 100 μL of detection buffer [0.1 M Tris-HCl and 0.1 M NaCl (pH 9.5)], each well was added with 1 μL of chemiluminescent substrate (CSPD-0.25 mM), and the plate was incubated at 17° C. for 5 minutes. Afterwards, the plate was patted dry and incubated at 37° C. for 30 minutes. The remaining DIG-AP marker control in each well was counted for 10 minutes by a luminescence multi-well plate reader (Enspire, PerkinElmer). Higher reading indicated weaker helicase activity.
Positive control and negative controls were set for this acticity assay. Among them, one negative control group, which differed from the experimental group only in that the former was not added with ATP (other conditions were the same as the experimental group), was used for the comparison with the experimental group; another negative control group, which differed from the experimental group only in that the former was not added with DHX33 protein (other conditions were the same as the experimental group), was used for the comparison with the experimental group. The positive control group was set for the comparison with the wild-type DHX33 protein (standard substance).
Biochemistry. 2019:58 (4):250-8.
Compounds having a series of concentration (the concentrations were set at 1 nM, 5 nM, 10 nM, 20 nM, 50 nM, 100 nM, 250 nM, 500 nM, and 1000 nM) were used to conduct the helicase activity assay of […] protein in vitro. The half-maximal inhibitory concentrations of the compounds of the present disclosure on the helicase activity of […] protein were as shown in Table 1.

U251-MG cells = assay: Half-maximal cell-inhibitory concentration on U251-MG cells (CCK-8); format: cell-based; settings: Homo sapiens, U-251, U251-MG cells (DHX33-overexpressing cancer cell strain), 48 hours, read-out: IC50 (half-maximal inhibitory concentrations of compounds on U251-MG cells)
Outline: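 […]-overexpressing glioma cells seeded at 1×10^4 cells/well, exposed to compound from 5 nM to 20 μM for 48 hours at 37° C, 5% CO2. Viability read by CCK-8 after 2 hours (OD 450 nm); IC50 from inhibition curves, three repeats.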

| Compound | IC50 (DHX33 protein) | IC50 (U251-MG cells) |
| --- | --- | --- |
| COc1cc2nc(/C(C#N)=C/c3cc(C)n(-c4sc(-c5ccccn5)cc4C#N)c3C)[nH]c2cn1 [AB24336, (E)-2-(3-(2-cyano-2-(6-methoxy-3H-imidazo[4,5-c]pyridin-2-yl)vinyl)-2,5-dimethyl-1H-pyrrol-1-yl)-5-(pyridin-2-yl)thiophene-3-carbonitrile] | 100 to 400 nM | 1000 to 5000 nM |
| COc1cc2nc(/C(C#N)=C/c3cc(C)n(-c4sc(C)nc4C(N)=O)c3C)[nH]c2cn1 [AB24351, (E)-5-(3-(2-cyano-2-(6-methoxy-3H-imidazo[4,5-c]pyridin-2-yl)vinyl)-2,5-dimethyl-1H-pyrrol-1-yl)-2-methylthiazole-4-carboxamide] | 20 to 100 nM | 100 to 1000 nM |
| COc1ccn2c(c1)nc1cc(-c3cc(C)n(-c4sc(C)cc4C#N)c3C)ccc12 [AB24379, 2-(3-(3-methoxybenzo[4,5]imidazo[1,2-a]pyridin-7-yl)-2,5-dimethyl-1H-pyrrol-1-yl)-5-methylthiophene-3-carbonitrile] | 20 to 100 nM | 1000 to 5000 nM |
| COc1ccc2nc(NC(=O)c3cc(C)n(-c4sc(C)cc4C#N)c3C)[nH]c2c1 [AB24386, 1-(3-cyano-5-methylthiophen-2-yl)-N-(6-methoxy-1H-benzo[d]imidazol-2-yl)-2,5-dimethyl-1H-pyrrole-3-carboxamide] | < 20 nM | < 100 nM |
| COc1ccc2nc(NC(=O)c3cc(C)n(-c4sc(C)cc4C(N)=O)c3C)[nH]c2c1 [AB24387, 1-(3-carbamoyl-5-methylthiophen-2-yl)-N-(6-methoxy-1H-benzo[d]imidazol-2-yl)-2,5-dimethyl-1H-pyrrole-3-carboxamide] | 20 to 100 nM | 100 to 1000 nM |
| COc1cc2nc(/C(C#N)=C/c3cc(C)n(Cc4cccs4)c3C)[nH]c2cn1 [AB24399, (E)-3-(2,5-dimethyl-1-(thiophen-2-ylmethyl)-1H-pyrrol-3-yl)-2-(6-methoxy-3H-imidazo[4,5-c]pyridin-2-yl)acrylonitrile] | < 20 nM | < 100 nM |
| COc1ccc2cc(NC(=O)c3cc(C)n(-c4sc(C)nc4C#N)c3C)[nH]c2c1 [AB29501] | < 20 nM | < 100 nM |
| COc1cc2nc(/C(C#N)=C/c3cc(C)n([C@@H](C)c4ccccc4)c3C)[nH]c2cn1 [AB29506, (S,E)-3-(2,5-dimethyl-1-(1-phenylethyl)-1H-pyrrol-3-yl)-2-(6-methoxy-3H-imidazo[4,5-c]pyridin-2-yl)acrylonitrile] | < 20 nM | < 100 nM |
| COc1cc2nc(/C(C#N)=C/c3cnc(-c4ccccc4)n3C)[nH]c2cn1 [AB29511, (E)-2-(6-methoxy-3H-imidazo[4,5-c]pyridin-2-yl)-3-(1-methyl-2-phenyl-1H-imidazol-5-yl)acrylonitrile] | 400 to 1000 nM | 5000 to 20000 nM |
| Cc1oc(-n2c(C)cc(/C=C(\C#N)c3nc4ccccc4[nH]3)c2C)c(C#N)c1C [Compound as control, reference compound] | 400 to 1000 nM | 5000 to 20000 nM |

From US20230146233A1, “A CLASS OF POLYCYCLIC COMPOUNDS INHIBITING RNA HELICASE DHX33 AND THE APPLICATION THEREOF” (Shenzhen KeYe Life Technologies, Co., Ltd, priority 2020, published 2023)
